# Experimental data published in patent US20110201016A1, “METHOD FOR DETECTING MODULATOR FOR REGULATING ACTIVITY OF CELLULAR COMPONENT IN CELL” (MEDISCOV INC., priority 2010, published 2011).
# What was measured:
# [1] = molecular target: T1, CSK (Homo sapiens, UniProt P41240); test: Competition reaction with dasatinib-magnetic substance for EGFP-labelled kinase in cells; details: CSK-EGFP in HeLa cells; 10 μM reactive competitor for 30 minutes to 2 hours
# [2] = molecular target: T2, MAPK14 (Homo sapiens, UniProt Q16539); test: Binding of dasatinib-magnetic substance to EGFP-labelled kinase in cells (magnetic pattern co-localization); details: MAPK14-EGFP in HeLa cells; dasatinib on magnetic substance; no reactive competitor
# [3] = tested on: ABL2; test: as above; details: EGFP-ABL2 in HeLa cells; dasatinib-biotin coated on streptavidin magnetic substance; magnetic field
# [4] = molecular target: T3, SNF1LK (Homo sapiens, UniProt P57059); test: as above; assay type: cell-based; details: SNF1LK-EGFP in HeLa cells; dasatinib on magnetic substance; no reactive competitor
# T3 construct: the ORF without the stop codon was amplified for each gene by PCR and then cloned into an expression vector; expressed in transfected cells; host or cells: HeLa
# Description: (§1) Bioconjug. […] Adv. Mater. […] J. Am. Chem. Soc. 130, 16466].
# (§2) J. Am. Chem. Soc. 130, 16466].
# (§3) Nature 255: 706]. […] J. Am. Chem. Soc. 130, 16466].
# [5] = molecular target: T4, LYN (Homo sapiens, UniProt P07948, G2A); test: as above; assay type: cell-based; details: LYN-EGFP (G2A) in HeLa cells; dasatinib-biotin coated on streptavidin magnetic substance; magnetic field
# T4 construct: the ORF without the stop codon was amplified for each gene by PCR; expressed in transfected cells; host or cells: HeLa
# Description: as §1, §2, §3
# (§4) The result is illustrated in FIG. 2.
# [6] = molecular target: T5, BLK (Homo sapiens, UniProt P51451, G2A); test: as above; assay type: cell-based; details: BLK-EGFP (G2A) in HeLa cells; dasatinib-biotin coated on streptavidin magnetic substance; magnetic field
# T5 construct: the ORF without the stop codon was amplified for each gene by PCR; expressed in transfected cells; host or cells: HeLa
# Description: as §1, §2, §3, §4
# [7] = molecular target: T6, RIPK2 (Homo sapiens, UniProt O43353); test: as above; assay type: cell-based; details: RIPK2-EGFP in HeLa cells; dasatinib-biotin coated on streptavidin magnetic substance; magnetic field
# T6 construct: the ORF without the stop codon was amplified for each gene by PCR; expressed in transfected cells; host or cells: HeLa
# Description: as §1, §2, §3, §4
# [8] = molecular target: T5, BLK; test: Competition reaction with dasatinib-magnetic substance for EGFP-labelled kinase in cells; assay type: cell-based; details: BLK-EGFP in HeLa cells; 10 μM reactive competitor for 30 minutes to 2 hours
# [9] = molecular target: T7, FGR (Homo sapiens, UniProt P09769, G2A); test: as above; details: FGR-EGFP in HeLa cells; 10 μM reactive competitor for 30 minutes to 2 hours
# [10] = molecular target: T2, MAPK14; test: as above; details: MAPK14-EGFP in HeLa cells; 10 μM reactive competitor for 30 minutes to 2 hours
# [11] = molecular target: T6, RIPK2; test: as above; assay type: cell-based; details: RIPK2-EGFP in HeLa cells; 10 μM reactive competitor for 30 minutes to 2 hours
# [12] = molecular target: T8, KIT (Homo sapiens, UniProt P10721); test: as above; assay type: cell-based; details: KIT-EGFP in HeLa cells; 10 μM reactive competitor for 30 minutes to 2 hours
# T8 construct: only the region of the amino acids 545 to 976 was amplified by PCR; expressed in transfected cells; host or cells: HeLa
# [13] = molecular target: T7, FGR; test: Binding of dasatinib-magnetic substance to EGFP-labelled kinase in cells (magnetic pattern co-localization); details: FGR-EGFP (G2A) in HeLa cells; dasatinib-biotin coated on streptavidin magnetic substance; magnetic field
# [14] = molecular target: T1, CSK; test: as above; details: CSK-EGFP in HeLa cells; dasatinib-biotin coated on streptavidin magnetic substance; magnetic field
# [15] = tested on: ABL2; test: Competition reaction with dasatinib-magnetic substance for EGFP-labelled kinase in cells; details: EGFP-ABL2 in HeLa cells; 10 μM reactive competitor for 30 minutes to 2 hours
# [16] = molecular target: T4, LYN; test: as above; assay type: cell-based; details: LYN-EGFP in HeLa cells; 10 μM reactive competitor for 30 minutes to 2 hours
# [17] = molecular target: T3, SNF1LK; test: as above; assay type: cell-based; details: SNF1LK-EGFP in HeLa cells; 10 μM reactive competitor for 30 minutes to 2 hours
# T6 sequence (O43353 whole entry): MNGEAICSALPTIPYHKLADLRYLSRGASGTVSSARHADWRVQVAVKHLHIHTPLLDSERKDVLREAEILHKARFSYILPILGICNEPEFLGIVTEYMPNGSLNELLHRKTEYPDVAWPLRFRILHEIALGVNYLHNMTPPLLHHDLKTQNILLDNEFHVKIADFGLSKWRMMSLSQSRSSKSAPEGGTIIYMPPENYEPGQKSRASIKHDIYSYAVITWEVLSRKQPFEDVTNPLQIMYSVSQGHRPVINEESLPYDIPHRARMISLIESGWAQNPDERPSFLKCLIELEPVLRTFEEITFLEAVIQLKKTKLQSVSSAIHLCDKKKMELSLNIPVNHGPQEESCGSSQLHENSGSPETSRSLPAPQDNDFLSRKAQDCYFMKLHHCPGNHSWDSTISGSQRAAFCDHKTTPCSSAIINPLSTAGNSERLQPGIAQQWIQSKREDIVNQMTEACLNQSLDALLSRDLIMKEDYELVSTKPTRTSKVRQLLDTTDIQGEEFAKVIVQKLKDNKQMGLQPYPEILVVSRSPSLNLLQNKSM
# T2 sequence (Q16539 1-360 isoform Q16539-2): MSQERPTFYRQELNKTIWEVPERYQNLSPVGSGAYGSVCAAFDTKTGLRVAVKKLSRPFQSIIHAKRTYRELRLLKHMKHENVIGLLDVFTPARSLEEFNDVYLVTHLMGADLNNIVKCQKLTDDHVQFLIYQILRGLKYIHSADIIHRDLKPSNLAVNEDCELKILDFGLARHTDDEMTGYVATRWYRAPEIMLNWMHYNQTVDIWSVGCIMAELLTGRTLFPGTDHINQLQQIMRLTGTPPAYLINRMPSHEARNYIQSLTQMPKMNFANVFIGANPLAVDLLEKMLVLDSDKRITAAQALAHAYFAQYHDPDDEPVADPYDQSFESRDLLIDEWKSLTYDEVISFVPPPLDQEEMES
# T5 sequence (P51451 whole entry G2A): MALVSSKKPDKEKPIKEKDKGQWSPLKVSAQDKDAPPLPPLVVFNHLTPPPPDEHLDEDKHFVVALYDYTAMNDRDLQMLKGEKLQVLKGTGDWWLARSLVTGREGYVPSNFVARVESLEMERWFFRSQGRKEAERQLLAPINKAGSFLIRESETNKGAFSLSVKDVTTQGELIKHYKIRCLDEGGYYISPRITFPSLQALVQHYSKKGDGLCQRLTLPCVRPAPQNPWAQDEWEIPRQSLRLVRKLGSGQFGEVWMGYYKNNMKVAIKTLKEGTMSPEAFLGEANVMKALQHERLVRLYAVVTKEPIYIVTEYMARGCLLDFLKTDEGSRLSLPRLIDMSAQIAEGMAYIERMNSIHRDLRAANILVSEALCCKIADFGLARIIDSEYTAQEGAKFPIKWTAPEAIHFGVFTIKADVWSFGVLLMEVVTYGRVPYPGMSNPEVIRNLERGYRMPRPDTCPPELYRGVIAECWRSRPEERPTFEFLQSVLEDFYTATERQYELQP
# T8 sequence (P10721 545-976): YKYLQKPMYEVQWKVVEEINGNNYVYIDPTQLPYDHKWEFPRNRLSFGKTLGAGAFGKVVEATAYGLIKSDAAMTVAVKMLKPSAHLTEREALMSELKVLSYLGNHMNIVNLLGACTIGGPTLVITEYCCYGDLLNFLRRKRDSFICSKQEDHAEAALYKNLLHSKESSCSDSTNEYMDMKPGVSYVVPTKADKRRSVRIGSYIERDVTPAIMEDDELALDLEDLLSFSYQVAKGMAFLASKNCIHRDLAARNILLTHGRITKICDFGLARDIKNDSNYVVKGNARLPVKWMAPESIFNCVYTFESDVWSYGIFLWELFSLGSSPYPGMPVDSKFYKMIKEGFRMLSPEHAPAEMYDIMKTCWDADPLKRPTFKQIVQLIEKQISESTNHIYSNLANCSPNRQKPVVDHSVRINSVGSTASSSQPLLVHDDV
# T3 sequence (P57059 whole entry): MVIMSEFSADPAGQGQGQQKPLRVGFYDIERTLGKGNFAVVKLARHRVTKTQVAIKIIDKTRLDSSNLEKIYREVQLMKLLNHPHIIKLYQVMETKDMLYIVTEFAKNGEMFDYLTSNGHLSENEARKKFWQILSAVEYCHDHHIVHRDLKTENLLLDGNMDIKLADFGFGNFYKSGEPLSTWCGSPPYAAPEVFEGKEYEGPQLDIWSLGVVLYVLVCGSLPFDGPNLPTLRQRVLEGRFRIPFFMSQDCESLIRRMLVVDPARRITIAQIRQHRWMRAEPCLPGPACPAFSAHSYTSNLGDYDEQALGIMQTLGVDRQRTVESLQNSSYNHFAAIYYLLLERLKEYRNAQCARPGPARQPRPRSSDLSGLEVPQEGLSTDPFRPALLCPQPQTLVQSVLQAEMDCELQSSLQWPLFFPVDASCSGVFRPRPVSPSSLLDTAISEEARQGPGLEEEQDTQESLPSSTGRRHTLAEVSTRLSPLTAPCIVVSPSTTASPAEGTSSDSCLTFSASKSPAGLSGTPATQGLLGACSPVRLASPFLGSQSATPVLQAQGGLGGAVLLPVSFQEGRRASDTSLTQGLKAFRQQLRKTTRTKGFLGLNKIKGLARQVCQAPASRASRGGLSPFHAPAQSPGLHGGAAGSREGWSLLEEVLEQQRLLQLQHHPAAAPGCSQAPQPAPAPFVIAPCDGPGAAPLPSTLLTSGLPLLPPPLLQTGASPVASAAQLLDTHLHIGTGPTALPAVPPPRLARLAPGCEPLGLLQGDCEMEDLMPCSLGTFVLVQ
# T4 sequence (P07948 1-491 isoform P07948-2 G2A): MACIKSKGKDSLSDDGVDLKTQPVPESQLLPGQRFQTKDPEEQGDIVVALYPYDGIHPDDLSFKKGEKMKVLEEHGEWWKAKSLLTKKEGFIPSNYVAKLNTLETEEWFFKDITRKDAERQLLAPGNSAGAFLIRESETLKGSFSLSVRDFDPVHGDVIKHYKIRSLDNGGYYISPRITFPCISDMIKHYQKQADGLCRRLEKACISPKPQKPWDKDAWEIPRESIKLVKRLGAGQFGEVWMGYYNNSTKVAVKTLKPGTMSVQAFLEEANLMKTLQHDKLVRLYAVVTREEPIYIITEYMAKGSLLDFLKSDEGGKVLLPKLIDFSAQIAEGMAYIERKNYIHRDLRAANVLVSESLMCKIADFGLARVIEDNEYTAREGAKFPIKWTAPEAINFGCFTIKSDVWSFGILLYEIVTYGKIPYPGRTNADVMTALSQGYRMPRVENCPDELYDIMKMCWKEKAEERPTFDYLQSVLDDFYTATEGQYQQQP
fluorescent pattern of kinase-EGFP overlapped with magnetization pattern (binding) [2],fluorescent pattern of kinase-EGFP overlapped with magnetization pattern (binding) [4],Structure (SMILES),competition with dasatinib-magnetic substance: fluorescent pattern overlapped with magnetization pattern [1],fluorescent pattern of kinase-EGFP overlapped with magnetization pattern (binding) [3],fluorescent pattern of kinase-EGFP overlapped with magnetization pattern (binding) [5],fluorescent pattern of kinase-EGFP overlapped with magnetization pattern (binding) [6],fluorescent pattern of kinase-EGFP overlapped with magnetization pattern (binding) [7],competition with dasatinib-magnetic substance: fluorescent pattern overlapped with magnetization pattern [8],competition with dasatinib-magnetic substance: fluorescent pattern overlapped with magnetization pattern [9],competition with dasatinib-magnetic substance: fluorescent pattern overlapped with magnetization pattern [10],competition with dasatinib-magnetic substance: fluorescent pattern overlapped with magnetization pattern [11],competition with dasatinib-magnetic substance: fluorescent pattern overlapped with magnetization pattern [12],fluorescent pattern of kinase-EGFP overlapped with magnetization pattern (binding) [13],fluorescent pattern of kinase-EGFP overlapped with magnetization pattern (binding) [14],competition with dasatinib-magnetic substance: fluorescent pattern overlapped with magnetization pattern [15],competition with dasatinib-magnetic substance: fluorescent pattern overlapped with magnetization pattern [16],competition with dasatinib-magnetic substance: fluorescent pattern overlapped with magnetization pattern [17]
interacted,interacted,"Cc1nc(Nc2ncc(C(=O)Nc3c(C)cccc3Cl)s2)cc(N2CCN(CCO)CC2)n1 [dasatinib, N-(2-chloro-6-methyl-phenyl)-2-(6-(4-(2-hydroxyethyl)-piperazin-1-yl)-2-methylpyrimidin-4-ylamino)thiazole-5-carboxamide]",fluorescent pattern overlapped with an induced magnetization pattern of the magnetic substances was not observed,showed the fluorescent patterns aligned in a magnetized direction,showed the fluorescent patterns aligned in a magnetized direction,showed the fluorescent patterns aligned in a magnetized direction,showed the fluorescent patterns aligned in a magnetized direction,fluorescent pattern overlapped with an induced magnetization pattern of the magnetic substances was not observed,fluorescent pattern overlapped with an induced magnetization pattern of the magnetic substances was not observed,fluorescent pattern overlapped with an induced magnetization pattern of the magnetic substances was not observed,fluorescent pattern overlapped with an induced magnetization pattern of the magnetic substances was not observed,fluorescent pattern overlapped with an induced magnetization pattern of the magnetic substances was not observed,showed the fluorescent patterns aligned in a magnetized direction,showed the fluorescent patterns aligned in a magnetized direction,fluorescent pattern overlapped with an induced magnetization pattern of the magnetic substances was not observed,fluorescent pattern overlapped with an induced magnetization pattern of the magnetic substances was not observed,fluorescent pattern overlapped with an induced magnetization pattern of the magnetic substances was not observed
–,–,Cc1ccc(NC(=O)c2ccc(CN3CCN(C)CC3)cc2)cc1Nc1nccc(-c2cccnc2)n1 [imatinib],–,–,–,–,–,–,–,–,–,interacts,–,–,–,–,–
